From ChEMBL document CHEMBL1143849, “Two new dfr genes in trimethoprim-resistant integron-negative Escherichia coli isolates” (2007) come the findings set out here.

For assay [1], the system named is Escherichia coli. Nature of the assay: Antimicrobial activity against Escherichia coli U93 isolate by disk diffusion test. For orientation: A growth-free zone around the sample is the usual read-out of agar diffusion tests.
Assay [2] deals with Escherichia coli. Nature of the assay: Antimicrobial activity against Escherichia coli U21 isolate by disk diffusion test.

On to `COc1cc(Cc2cnc(N)nc2N)cc(OC)c1OC` [TRIMETHOPRIM], for which the MIC in assay [1] and in assay [2] was over 32 µg/mL each time.
